From patent US10335409B2 (priority 2012, dated 2019) come the findings set out here.

Holding throughout (type): cell-based, hepatitis C virus
In assay [1] the test system is genotype 2a (JFH-1) stable HCV replicon in Huh-7-derived cells. The experiment in a line: Stable subgenomic HCV replicon EC50, genotype 2a (Renilla luciferase). Particulars: Hepatitis C virus, stable replicon genotype 2a, 72 h, read-out: EC50 2A RLUC. The procedure:
(§1) Antiviral potency (EC50) was determined in both stable subgenomic HCV replicon cell lines and transient-transfected HCV replicon cells. The term half maximal effective concentration (EC50) refers to the concentration of a drug which induces a response halfway between the baseline and maximum after the exposure time specified below.
(§2) Stable subgenomic HCV replicons for genotype 1a, 1b, 2a, 3a, and 4a were established in Huh-7-derived cells as described by Lohmann et al (Lohmann V, Korner F, Koch J, et al Replication of subgenomic hepatitis C virus RNAs in a hepatoma cell line. Science 1999; 285:119-3) Each stable cell line contains a bicistronic HCV replicon that encodes a humanized Renilla luciferase (hRLuc) reporter gene fused to a selectable neomycin-resistance gene, followed by an EMCV IRES and the NS3-NS5B coding region of HCV. […] Luciferase activity was measured as a marker for intracellular HCV replication levels.
(§3) The genotype 1a stable replicon was derived from the H77 HCV strain and contained adaptive mutations P1496L and S2204I. The genotype 1b stable replicon was derived from the Con1 HCV strain and contained adaptive mutations E1202G, T1280I and K1846T. […] The genotype 3a stable replicon was derived from the S52 HCV strain and contained adaptive mutations P1121L, A1198T and S2210I (equivalent to S2204I in genotype 1). The genotype 4a stable replicon was derived from the ED43 HCV strain and contained adaptive mutations Q1691R and S2204I. All replicon cell lines were propagated in Huh-7-derived cells and maintained in Dulbecco's modified Eagle's Medium (DMEM) supplemented with 10% fetal bovine serum (FBS) and 0.5 mg/mL G418.
(§4) To perform EC50 assays, cells from each HCV replicon were dispensed into 384-well plates. Compounds were dissolved in DMSO at a concentration of 10 mM and diluted in DMSO using an automated pipetting instrument. Three-fold serially diluted compounds were directly added to the cells using an automated instrument. […] Seventy-two hours later, cells were lysed and Renilla luciferase activity were quantified as recommended by the manufacturer (Promega-Madison, Wis.). Non-linear regression was performed to calculate EC50 values.
For orientation: In antiviral work, replicon cells carry a viral genome segment that copies itself.

In assay [2] the test system is genotype 1b (Con1) wild type transient HCV replicon in Huh-7-derived cells. Description: Transient-transfected HCV replicon EC50, genotype 1b wild type. Particulars: Hepatitis C virus, 72 h, read-out: EC50 1B WT.
In assay [3] the test system is genotype 1b (Con1) stable HCV replicon in Huh-7-derived cells. The experiment in a line: Stable subgenomic HCV replicon EC50, genotype 1b (Renilla luciferase). Particulars: Hepatitis C virus, stable replicon genotype 1b, 72 h, read-out: EC50 1B RLUC. On the procedure:
as §1, §2, §3, §4

The subject of assay [4] is genotype 1a (H77) wild type transient HCV replicon in Huh-7-derived cells. The experiment in a line: Transient-transfected HCV replicon EC50, genotype 1a wild type. Particulars: Hepatitis C virus, 72 h, read-out: EC50 1A WT.
Assay [5] relates to genotype 1b NS3/4a protease inhibitor resistant variant D168A transient HCV replicon in Huh-7-derived cells. Description: Transient-transfected HCV replicon EC50, genotype 1b D168A. Particulars: Hepatitis C virus, 72 h, read-out: EC50 1B D168A, transient-transfected replicon genotype 1b D168A resistant variant, 72 h.
In assay [6] the test system is genotype 3a (S52) stable HCV replicon in Huh-7-derived cells. Description: Stable subgenomic HCV replicon EC50, genotype 3a (Renilla luciferase). Particulars: Hepatitis C virus, 72 h, read-out: EC50 3A RLUC. The procedure: as §1, §2, §3, §4
The test system of assay [7] is genotype 1a NS3/4a protease inhibitor resistant variant R155K transient HCV replicon in Huh-7-derived cells. The experiment in a line: Transient-transfected HCV replicon EC50, genotype 1a R155K. Particulars: Hepatitis C virus, 72 h, read-out: EC50 1A R155K, transient-transfected replicon genotype 1a R155K resistant variant, 72 h.
Assay [8] concerns genotype 1a (H77) stable HCV replicon in Huh-7-derived cells. Description: Stable subgenomic HCV replicon EC50, genotype 1a (Renilla luciferase). Particulars: Hepatitis C virus, stable replicon genotype 1a, 72 h, read-out: EC50 1A RLUC. The procedure: as §1, §2, §3, §4
Assay [9] concerns genotype 4a (ED43) stable HCV replicon in Huh-7-derived cells. Description: Stable subgenomic HCV replicon EC50, genotype 4a (Renilla luciferase). Particulars: Hepatitis C virus, 72 h, read-out: EC50 4A RLUC. The procedure: as §1, §2, §3, §4
The mark [10] stands for this setting: transient-transfected replicon genotype 1b wild type.
[11] abbreviates: transient-transfected replicon genotype 1a wild type.

Broadly, the EC50 is the midpoint of the concentration-response curve.

Like-named read-outs stand apart in the source and are kept apart here.

For `COc1ccc2nc3c(nc2c1)O[C@H]1CN(C(=O)[C@H](C(C)(C)C)NC(=O)O[C@@H]2C[C@H]2CCCCC3)[C@H](C(=O)N[C@]2(C(=O)NS(=O)(=O)C3CC3)C[C@H]2CC(F)F)[C@@H]1C` [Example 24, (1aR,5S,8S,9S,10R,22aR)-5-tert-butyl-N-[(1R,2S)-1-[(cyclopropylsulfonoyl)carbamoyl]-2-(2,2-difluoroethyl)cyclopropyl]-14-methoxy-9-methyl-3,6-dioxo-1,1a,3,4,5,6,9,10,18,19,20,21,22,22a-tetradecahydro-8H-7,10-methanocyclopropa[18,19][1,10,3,6]dioxadiazacyclononadecino[11,12-b]quinoxaline-8-carboxamide], the EC50 in assay [1] came to 20 nM; in assay [2] (setting [10]), 3.2 nM; in assay [3], 7.5 nM; in [4] (setting [11]), 9.3 nM; in assay [5], 284 nM; in assay [6], 663 nM. The half-maximal effective concentration (EC50) in assay [7] came to 49 nM; in [8], 12 nM; in assay [9], 9.2 nM.
In the case of `COc1ccc2nc3c(nc2c1)O[C@H]1CN(C(=O)[C@H](C(C)(C)C)NC(=O)O[C@@H]2C[C@H]2CCCCC3)[C@H](C(=O)N[C@]2(C(=O)NS(=O)(=O)C3(C)CC3)C[C@H]2CC(F)F)[C@@H]1C` [Example 25, (1aR,5S,8S,9S,10R,22aR)-5-tert-butyl-N-[(1R,2S)-2-(2,2-difluoroethyl)-1-{[(1-methylcyclopropyl)sulfonyl]carbamoyl}cyclopropyl]-14-methoxy-9-methyl-3,6-dioxo-1,1a,3,4,5,6,9,10,18,19,20,21,22,22a-tetradecahydro-8H-7,10-methanocyclopropa[18,19][1,10,3,6]dioxadiazacyclononadecino[11,12-b]quinoxaline-8-carboxamide], the EC50 in assay [1] worked out at 13 nM; in assay [2] (setting [10]), 3.6 nM; in assay [3], 6.3 nM; in [4] (setting [11]), 4.4 nM; in [5], 116 nM; in [6], 409 nM. The values for the EC50 in assay [7], in assay [8] and in assay [9] were 17 nM, 8.8 nM and 7.1 nM, respectively.
As to `CC[C@@H]1[C@@H]2CN(C(=O)[C@H](C(C)(C)C)NC(=O)O[C@@H]3C[C@H]3CCCCCc3nc4ccc(OC)cc4nc3O2)[C@@H]1C(=O)N[C@]1(C(=O)NS(=O)(=O)C2CC2)C[C@H]1C(F)F` [Example 2, (1aR,5S,8S,9S,10R,22aR)-5-tert-butyl-N-[(1R,2R)-1-[(cyclopropylsulfonyl)carbamoyl]-2-(difluoromethyl)cyclopropyl]-9-ethyl-14-methoxy-3,6-dioxo-1,1a,3,4,5,6,9,10,18,19,20,21,22,22a-tetradecahydro-8H-7,10-methanocyclopropa[18,19][1,10,3,6]dioxadiazacyclononadecino[11,12-b]quinoxaline-8-carboxamide], the EC50 was 3.9 nM in [1]; 1 nM in assay [2] (setting [10]); 3.1 nM in assay [3]; 2.4 nM in [4] (setting [11]); 33 nM in assay [5]; 77 nM in assay [6]. Further, the EC50 in assay [7] turned out to be 7 nM; in [8], 4 nM; in [9] it was 2.7 nM.
For the compound `COc1ccc2nc3c(nc2c1)O[C@H]1CN(C(=O)[C@H](C(C)(C)C)NC(=O)O[C@@H]2C[C@H]2CCCCC3)[C@H](C(=O)N[C@]2(C(=O)NS(=O)(=O)C3CC3)C[C@H]2CCF)[C@@H]1C` [Example 22, (1aR,5S,8S,9S,10R,22aR)-5-tert-butyl-N-[(1R,25)-1-[(cyclopropylsulfonyl)carbamoyl]-2-(2-fluoroethyl)cyclopropyl]-14-methoxy-9-methyl-3,6-dioxo-1,1a,3,4,5,6,9,10,18,19,20,21,22,22a-tetradecahydro-8H-7,10-methanocyclopropa[18,19][1,10,3,6]dioxadiazacyclononadecino[11,12-b]quinoxaline-8-carboxamide], the EC50 is 27 nM in assay [1]; 2.6 nM in assay [2] (setting [10]); 7.5 nM in [3]; 8.6 nM in assay [4] (setting [11]); 242 nM in assay [5]; 727 nM in assay [6]. Moreover, the EC50 in assay [7] is 48 nM; in assay [8], 15 nM; in [9] it was 11 nM.
Turning to `CC[C@@H]1[C@@H]2CN(C(=O)[C@H](C(C)(C)C)NC(=O)O[C@@]3(C)C[C@@H]3CCCCCc3nc4ccc(OC)cc4nc3O2)[C@@H]1C(=O)N[C@]1(C(=O)NS(=O)(=O)C2(C)CC2)C[C@H]1C(F)F` [Example 8, (1aS,5S,8S,9S,10R,22aS)-5-tert-butyl-N-[(1R,2R)-2-(difluoromethyl)-1-{[(1-methylcyclopropyl)sulfonyl]carbamoyl}cyclopropyl]-9-ethyl-14-methoxy-1a-methyl-3,6-dioxo-1,1a,3,4,5,6,9,10,18,19,20,21,22,22a-tetradecahydro-8H-7,10-methanocyclopropa[18,19][1,10,3,6] dioxadiazacyclononadecino[11,12-b]quinoxaline-8-carboxamide], the EC50 in [1] is 20 nM; in [2] (setting [10]), 4.8 nM; in [3], 8.6 nM; in assay [4] (setting [11]), 8.8 nM; in assay [5], 89 nM; in assay [6] it was 465 nM. The EC50 in assay [7] turned out to be 28 nM; in assay [8], 16 nM; in assay [9], 13 nM.
In the case of `COc1ccc2nc3c(nc2c1)O[C@H]1CN(C(=O)[C@H](C(C)(C)C)NC(=O)O[C@@]2(C)C[C@@H]2CCCCC3)[C@H](C(=O)N[C@]2(C(=O)NS(=O)(=O)C3(C)CC3)C[C@H]2C(F)F)[C@@H]1C` [Example 45, (1aS,5S,8S,9S,10R,22aS)-5-tert-butyl-N-[(1R,2R)-2-(difluoromethyl)-1-{[(1-methylcyclopropyl)sulfonyl]carbamoyl}cyclopropyl]-14-methoxy-1a,9-dimethyl-3,6-dioxo-1,1a,3,4,5,6,9,10,18,19,20,21,22,22a-tetradecahydro-8H-7,10-methanocyclopropa[18,19][1,10,3,6]dioxadiazacyclononadecino[11,12-b]quinoxaline-8-carboxamide], the concentration giving a half-maximal response (EC50) in [1] turned out to be 24 nM; in [2] (setting [10]) it was 5.3 nM; in assay [3], 8.3 nM; in [4] (setting [11]), 13 nM; in [5], 88 nM; in [6], 549 nM. Further, the EC50 in [7] was 35 nM; in [8], 21 nM; in [9], 13 nM.
Take `COc1ccc2nc3c(nc2c1)O[C@H]1CN(C(=O)[C@H](C(C)(C)C)NC(=O)O[C@@H]2C[C@H]2CCCCC3)[C@H](C(=O)N[C@]2(C(=O)NS(=O)(=O)C3CC3)C[C@H]2C(F)F)[C@@H]1C` [Example 19, (1aR,5S,8S,9S,10R,22aR)-5-tert-butyl-N-[(1R,2R)-1-[(cyclopropylsulfonyl)carbamoyl]-2-(difluoromethyl)cyclopropyl]-14-methoxy-9-methyl-3,6-dioxo-1,1a,3,4,5,6,9,10,18,19,20,21,22,22a-tetradecahydro-8H-7,10-methanocyclopropa[18,19][1,10,3,6]dioxadiazacyclononadecino[11,12-b]quinoxaline-8-carboxamide]: the EC50 in assay [1] was 4.6 nM; in assay [2] it was 1.1 nM; in assay [3], 2.6 nM; in [4] it was 2.1 nM; in assay [5], 28 nM; in [6], 89 nM. Further, the EC50 in [7] was 3.4 nM; in [8] it was 4 nM; in assay [9] it was 3.1 nM.
